The values that follow come from patent publication US11780826B2 (Amgen Inc., priority 2017, dated 2023).

The subject of the test is Bovine cardiac myofibrils. The test can be described thus: In vitro model of dose-dependent myofibril ATPase modulation (AC1.4, pyruvate kinase/lactate dehydrogenase-coupled ATPase assay at pCa25). It counts as biochemical. Particulars: concentration at which ATPase activity was 1.4-fold higher than the bottom of the dose curve, mean of a minimum of two independent tests. The method in brief:
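Absorbance at 340 nm tracked ATP hydrolysis through pyruvate kinase/lactate dehydrogenase coupling (0.5 mM NADH, 1.5 mM PEP). Myofibrils from detergent-homogenized bovine heart, 1 mM ATP, pH 6.80, EGTA/CaCl2 buffering. Dose-response curves fitted with a four-parameter Hill equation.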
As for `COc1ccc(CNC(=O)[C@H]2CCCN2C(=O)[C@H]2CCCN(S(=O)(=O)N3CC(C#N)C3)C2)cc1C` [Example 672, 1-(((3S)-1-((3-cyano-1-azetidinyl)sulfonyl)-3-piperidinyl)carbonyl)-N-(4-methoxy-3-methylbenzyl)-D-prolinamide], the AC1.4 came out at 4.8355 µM. The compound `CS(=O)(=O)c1cccc(C(=O)N2CC3(CCC3)[C@@H]2C(=O)N[C@@H](c2ccc(C(F)(F)F)cc2F)C2CC2)c1` [Example 475, (1R)-N-((R)-cyclopropyl(2-fluoro-4-(trifluoromethyl)phenyl)methyl)-2-(3-(methylsulfonyl)benzoyl)-2-azaspiro[3.3]heptane-1-carboxamide] had an AC1.4 of 1.866 µM. Under `CS(=O)(=O)c1cccc(C(=O)N2C[C@@H](F)C[C@@H]2C(=O)N[C@@H](c2ccc(C(F)(F)F)cc2F)C2COC2)c1` [Example 528, (4S)-4-fluoro-N-((R)-(2-fluoro-4-(trifluoromethyl)phenyl)(3-oxetanyl)methyl)-1-(3-(methylsulfonyl)benzoyl)-D-prolinamide] stands 2.4294 µM; under `C[C@@H](NC(=O)[C@H]1COCCN1C(=O)[C@H]1CCCN(S(=O)(=O)N2CC(C#N)C2)C1)c1ccc(C(F)(F)F)cc1` [Example 175, (3R)-4-(((3S)-1-((3-cyano-1-azetidinyl)sulfonyl)-3-piperidinyl)carbonyl)-N-((1R)-1-(4-(trifluoromethyl)phenyl)ethyl)-3-morpholinecarboxamide], 0.3064 µM; under `COCC1CN(S(=O)(=O)N2CCC[C@H](C(=O)N3CCC[C@@H]3C(=O)NCc3ccc(C(F)(F)F)cc3)C2)C1` [Example 788, 1-(((3S)-1-((3-(methoxymethyl)-1-azetidinyl)sulfonyl)-3-piperidinyl)carbonyl)-N-(4-(trifluoromethyl)benzyl)-D-prolinamide], 8.9395 µM. Under `CS(=O)(=O)c1cccc(C(=O)N2CCCC[C@@H]2C(=O)N[C@@H](c2ccc(C(F)(F)F)cc2F)C2CC2)c1` [Example 253, (2R)-N-((R)-cyclopropyl(2-fluoro-4-(trifluoromethyl)phenyl)methyl)-1-(3-(methylsulfonyl)benzoyl)-2-piperidinecarboxamide] stands 0.6092 µM; under `CS(=O)(=O)c1cc(C(=O)N2[C@@H](C(=O)N[C@@H](c3cc(F)c(Cl)cc3F)C3CC3)C[C@@H]3C[C@@H]32)ccn1` [Example 779, (1S,3R,5S)-N-((R)-(4-chloro-2,5-difluorophenyl)(cyclopropyl)methyl)-2-((2-(methylsulfonyl)-4-pyridinyl)carbonyl)-2-azabicyclo[3.1.0]hexane-3-carboxamide], 8.423 µM.

With `Cc1ccc([C@@H](C)NC(=O)[C@H]2CCCN2C(=O)[C@H]2CCCN(S(=O)(=O)N3CC(C#N)C3)C2)c(F)c1` [Example 98, 1-(((3S)-1-((3-cyano-1-azetidinyl)sulfonyl)-3-piperidinyl)carbonyl)-N-((1R)-1-(2-fluoro-4-methylphenyl)ethyl)-D-prolinamide], the AC1.4 came to 0.1474 µM. Regarding `N#Cc1ccc(CNC(=O)[C@H]2CCCN2C(=O)[C@H]2CCCN(S(=O)(=O)N3CC(C#N)C3)C2)cc1` [Example 551, 1-(((3S)-1-((3-cyano-1-azetidinyl)sulfonyl)-3-piperidinyl)carbonyl)-N-(4-cyanobenzyl)-D-prolinamide], the AC1.4 turned out to be 2.8435 µM. Regarding `NS(=O)(=O)c1cccc(C(=O)N2C[C@@H](F)C[C@@H]2C(=O)N[C@@H](c2ccc(C(F)(F)F)cc2F)C2CC2)c1` [Example 531, (4S)-N-((R)-cyclopropyl(2-fluoro-4-(trifluoromethyl)phenyl)methyl)-4-fluoro-1-(3-sulfamoylbenzoyl)-D-prolinamide], the AC1.4 worked out at 2.553 µM. The compound `Cc1noc(C)c1C(=O)N1[C@@H](C(=O)N[C@@H](c2cc(F)c(C(F)(F)F)cc2F)C2COC2)C[C@H]2C[C@H]21` [Example 825, (1R,3R,5R)-N-((R)-(2,5-difluoro-4-(trifluoromethyl)phenyl)(oxetan-3-yl)methyl)-2-(3,5-dimethylisoxazole-4-carbonyl)-2-azabicyclo[3.1.0]hexane-3-carboxamide] came in with an AC1.4 of 9.3793 µM. Under `N#CC1CN(S(=O)(=O)N2CCC[C@H](C(=O)N3CCC[C@@H]3C(=O)NCc3ccc(Cl)cc3)C2)C1` [Example 164, N-(4-chlorobenzyl)-1-(((3S)-1-((3-cyano-1-azetidinyl)sulfonyl)-3-piperidinyl)carbonyl)-D-prolinamide] stands 0.2785 µM. The value for `N#CC1CN(S(=O)(=O)N2CCC[C@@H](C(=O)N3CCC[C@@H]3C(=O)NCc3ccc(C(F)(F)F)cc3F)C2)C1` [Example 539, 1-(((3R)-1-((3-cyano-1-azetidinyl)sulfonyl)-3-piperidinyl)carbonyl)-N-(2-fluoro-4-(trifluoromethyl)benzyl)-D-prolinamide] was 2.753 µM; that for `O=C(NCc1ccc(C(F)(F)F)cc1)[C@H]1CCCN1C(=O)[C@H]1CCCN(S(=O)(=O)N2CC(OCC(F)F)C2)C1` [Example 311, 1-(((3S)-1-((3-(2,2-difluoroethoxy)-1-azetidinyl)sulfonyl)-3-piperidinyl)carbonyl)-N-(4-(trifluoromethyl)benzyl)-D-prolinamide] was 0.8393 µM; that for `CN(C)S(=O)(=O)c1cccc(C(=O)N2CCC[C@@H]2C(=O)N[C@H](c2ccc(Cl)c(F)c2)C2CC2)c1` [Example 408, N-((S)-(4-chloro-3-fluorophenyl)(cyclopropyl)methyl)-1-(3-(dimethylsulfamoyl)benzoyl)-D-prolinamide] was 1.479 µM.

With `O=C(N[C@@H](c1ccc(C(F)(F)F)cc1F)C1COC1)[C@H]1C[C@H]2C[C@H]2N1C(=O)c1cc(C(F)(F)F)ccn1` [Example 409, (1R,3R,5R)-N-((R)-(2-fluoro-4-(trifluoromethyl)phenyl)(3-oxetanyl)methyl)-2-((4-(trifluoromethyl)-2-pyridinyl)carbonyl)-2-azabicyclo[3.1.0]hexane-3-carboxamide], the AC1.4 worked out at 1.484 µM. Take `CCS(=O)(=O)c1cccc(C(=O)N2[C@@H](C(=O)N[C@@H](c3ccc(C(F)(F)F)cc3F)C3CC3)C[C@H]3C[C@H]32)c1` [Example 246, (1R,3R,5R)-N-((R)-cyclopropyl(2-fluoro-4-(trifluoromethyl)phenyl)methyl)-2-(3-(ethylsulfonyl)benzoyl)-2-azabicyclo[3.1.0]hexane-3-carboxamide]: the AC1.4 was found to be 0.582 µM. In turn, `N#CC1CN(S(=O)(=O)N2CCC[C@H](C(=O)N3CCC[C@@H]3C(=O)NCc3ccc(C(F)(F)F)cc3F)C2)C1` [Example 62, 1-(((3S)-1-((3-cyano-1-azetidinyl)sulfonyl)-3-piperidinyl)carbonyl)-N-(2-fluoro-4-(trifluoromethyl)benzyl)-D-prolinamide] displayed an AC1.4 of 0.07198 µM.

In turn, `N#CC1CN(S(=O)(=O)c2cc(C(=O)N3CCC[C@@H]3C(=O)NCc3ccc(C(F)(F)F)cc3F)ccn2)C1` [Example 142, 1-((2-((3-cyano-1-azetidinyl)sulfonyl)-4-pyridinyl)carbonyl)-N-(2-fluoro-4-(trifluoromethyl)benzyl)-D-prolinamide] gave an AC1.4 of 0.2421 µM. `O=C(N[C@@H](c1cc(F)c(C(F)(F)F)cc1F)C1COC1)[C@H]1C[C@H]2C[C@H]2N1C(=O)c1cc(C(F)(F)F)on1` [Example 823, (1R,3R,5R)-N-((R)-(2,5-difluoro-4-(trifluoromethyl)phenyl)(oxetan-3-yl)methyl)-2-(5-(trifluoromethyl)isoxazole-3-carbonyl)-2-azabicyclo[3.1.0]hexane-3-carboxamide] returned an AC1.4 of 2.768 µM. Under `Cc1ccccc1CNC(=O)[C@H]1CCCN1C(=O)[C@H]1CCCN(S(=O)(=O)N2CC(C#N)C2)C1` [Example 571, 1-(((3S)-1-((3-cyano-1-azetidinyl)sulfonyl)-3-piperidinyl)carbonyl)-N-(2-methylbenzyl)-D-prolinamide] stands 3.1845 µM. `Cc1cc(C(=O)N2[C@@H](C(=O)N[C@@H](c3cc(F)c(C(F)(F)F)cc3F)C3CC3)C[C@H]3C[C@H]32)ccn1` [Example 717, (1R,3R,5R)-N-((R)-cyclopropyl(2,5-difluoro-4-(trifluoromethyl)phenyl)methyl)-2-((2-methyl-4-pyridinyl)carbonyl)-2-azabicyclo[3.1.0]hexane-3-carboxamide] came in with an AC1.4 of 6.259 µM. `CS(=O)(=O)c1cccc(C(=O)N2CC[C@H]2C(=O)N[C@@H](c2cc(F)c(Cl)cc2F)C2CC2)c1` [Example 732, (2S)-N-((R)-(4-chloro-2,5-difluorophenyl)(cyclopropyl)methyl)-1-(3-(methylsulfonyl)benzoyl)-2-azetidinecarboxamide] yielded an AC1.4 of 6.7885 µM. Compound `C[C@@H](NC(=O)[C@H]1CCCN1C(=O)[C@H]1CCCN(S(=O)(=O)N2CC(C#N)C2)C1)c1ccc(C(F)(F)F)cc1` [Example 84, 1-(((3S)-1-((3-cyano-1-azetidinyl)sulfonyl)-3-piperidinyl)carbonyl)-N-((1R)-1-(4-(trifluoromethyl)phenyl)ethyl)-D-prolinamide] gave an AC1.4 of 0.1147 µM. The value for `N#CC1CN(S(=O)(=O)c2cccc(C(=O)N3CCC[C@@H]3C(=O)NCc3cccc(Cl)c3)c2)C1` [Example 190, N-(3-chlorobenzyl)-1-((3-((3-cyano-1-azetidinyl)sulfonyl)phenyl)carbonyl)-D-prolinamide] was 0.3569 µM.

`N#CC1CN(S(=O)(=O)c2cccc(C(=O)N3CCC[C@@H]3C(=O)NCc3ncc(C(F)(F)F)cn3)c2)C1` [Example 725, 1-((3-((3-cyano-1-azetidinyl)sulfonyl)phenyl)carbonyl)-N-((5-(trifluoromethyl)-2-pyrimidinyl)methyl)-D-prolinamide] returned an AC1.4 of 6.507 µM.
